Results published in patent US11465984B2, “Compound having ERK kinase inhibitory activity and use thereof” (SHANGHAI HAIHE PHARMACEUTICAL CO., LTD., priority 2017, dated 2022).
Where two headings read alike, the source gives them in different places. Blank lines part the entries; values can stand above or below the compound they belong to.

Target: ERK2 kinase (Homo sapiens (Human), UniProt P28482)
Assay: In vitro enzyme activity assay, ERK2 kinase (Z'-LYTE)
Assay type: biochemical
Description: Half inhibitory activity of the compounds of the invention against ERK2 kinase (IC50 value) was determined in this Example.
• Enzyme: extracellular signal-regulated kinase ERK2 kinase (PV3595, Invitrogen) • Kit: Z′-LYTE® Protein Kinase Assay Kit-Ser/Thr 3 Peptide (PV3176, Invitrogen) • Kit components: The substrate Z′-LYTE™ Ser/Thr 3 Peptide (PV3200) • The phosphorylation substrate Z′-LYTE™ Ser/Thr 3 Phospho-peptide (PV3215) • 5× kinase buffer: 250 mM HEPES (pH 7.5), 50 mM MgCl2, • 5 mM EGTA, 0.05% BRIJ-35 (PV3189, Invitrogen) • ATP (PV3227, Invitrogen) • Development Reagent A (PV3295, Invitrogen) • Development Buffer (P3127, Invitrogen) • Stop Reagent (P3094, Invitrogen) • Microplate reader: The multil-mode microplate reader PerkinElmer EnVision® • Microplate: black shallow 384-well microplate (6008269, PerkinElmer) (2). Assay Protocol:
The substrate Z′-LYTE™ Ser/Thr 3 Peptide, the phosphorylation substrate Z′-LYTE™ Ser/Thr 3 Phospho-peptide, 1× kinase buffer (5× kinase buffer was diluted with ultra pure water by five times), ATP, Development Reagent A, Development Buffer, Stop Reagent were balanced to room temperature for use. The screening concentrations for detecting the effect of the compounds of the invention on the ERK kinase activity were seven 3-fold serial dilutions starting from 1 μM (from 0.2 μM for the positive drug control) using 4% DMSO as co-solvent. 5 μL enzyme system (50 mM HEPES pH 7.5, 1 mM EGTA, 10 mM MgCl2, 0.01% Brij-35, 4 uM substrate, 0.8 ng/μL enzyme), 2.5 μL Compound, 2.5 μL 400 μM ATP were added into 384 well microplate, followed by incubation at room temperature for 60 min in the dark. After the reaction was completed, 5 μl the developing agent (Development Reagent A) diluted with the developing buffer (Development Buffer) was added to all reaction wells, followed by incubation at the room temperature for 60 min in the dark. 5 μL the terminating agent was added to each well to terminate the reaction. The fluorescence was determined using the multil-mode microplate reader PerkinElmer EnVision® (excitation wavelength 400 nm, emission wavelength 460 nm and 528 nm).
The inhibition rate of each well was calculated from 100% phosphorylation substrate well and 0% phosphorylation substrate well using the data analysis method below: phosphorylation %=1−{(emission rate×F100%−C100%)/[C0%−C100%+emission rate×(F100%−F0%)]}×100 inhibition %=100×(1−phosphorylation % of the test compound well/phosphorylation % of the 0% inhibition control) • wherein: • emission rate=fluorescence emission of the sample at 445 nm/fluorescence emission of the sample at 520 nm • F100%=the average fluorescence emission of the control well of 100% phosphorylation substrate at 520 nm • F0%=the average fluorescence emission of the control well of 0% phosphorylation substrate at 520 nm • C100%=the average fluorescence emission of the control well of 100% phosphorylation substrate at 445 nm • C0%=the average fluorescence emission of the control well of 0% phosphorylation substrate at 445 nm
Tests were carried out in duplicate. IC50 values were calculated from the inhibition of the kinase by the test compounds at a range of different concentrations.

[1] = class symbols, read-out: ERK2 IC50
[2] = read-out: IC50 against ERK2 kinase

Sequence of ERK2 kinase (P28482 whole entry): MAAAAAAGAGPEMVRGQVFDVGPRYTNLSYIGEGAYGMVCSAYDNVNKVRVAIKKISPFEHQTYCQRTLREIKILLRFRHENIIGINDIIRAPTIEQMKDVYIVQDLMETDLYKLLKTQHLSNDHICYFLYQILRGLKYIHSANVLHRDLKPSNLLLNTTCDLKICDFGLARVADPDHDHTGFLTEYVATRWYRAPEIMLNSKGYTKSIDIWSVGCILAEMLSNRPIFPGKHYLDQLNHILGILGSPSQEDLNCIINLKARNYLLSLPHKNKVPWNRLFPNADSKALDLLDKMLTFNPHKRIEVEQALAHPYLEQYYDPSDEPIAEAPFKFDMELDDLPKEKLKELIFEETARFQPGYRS

Compound: CC(CO)Nc1nccc(-c2cc(F)c3c(c2)CCN3C(=O)Cc2cccnc2Cl)n1 (centres unmarked) [Example P1, 2-(2-chloropyridin-3-yl)-1-(7-fluoro-5-(2-((1-hydroxylprop-2-yl)amino)pyrimidin-4-yl)indolin-1-yl)ethan-1-one]
- IC50 [1]: 100 to 1000 nM

Compound: O=C(Cc1cccnc1Cl)N1CCc2cc(-c3ccnc(NCCO)n3)cc(F)c21 [Example P2, 2-(2-chloropyridin-3-yl)-1-(7-fluoro-5-(2-((2-hydroxylethyl)amino)pyrimidin-4-yl)indolin-1-yl)ethan-1-one]
- IC50 [1]: 10 to 100 nM

Compound: O=C(Cc1cccnc1Cl)N1CCc2cc(-c3ccnc(NC4CCC(O)CC4)n3)cc(F)c21 (centres unmarked) [Example P3, 2-(2-chloropyridin-3-yl)-1-(7-fluoro-5-(2-((4-hydroxylcyclohexyl)amino)pyrimidin-4-yl)indolin-1-yl)ethan-1-one]
- IC50 [1]: 10 to 100 nM

Compound: O=C(Cc1cccnc1Cl)N1CCc2cc(-c3ccnc(NC4CCC(O)C4)n3)cc(F)c21 (centres unmarked) [Example P4, 2-(2-chloropyridin-3-yl)-1-(7-fluoro-5-(2-((3-hydroxylcyclopentyl)amino)pyrimidin-4-yl)indolin-1-yl)ethan-1-one]
- IC50 [1]: 10 to 100 nM

Compound: O=C(Cc1cccnc1Cl)N1CCc2cc(-c3ccnc(NC4CCOCC4)n3)cc(F)c21 [Example P5, 2-(2-chloropyridin-3-yl)-1-(7-fluoro-5-(2-((tetrahydro-2H-pyran-4-yl)amino)pyrimidin-4-yl)indolin-1-yl)ethan-1-one]
- IC50 [1]: ≤ 10 nM

Compound: O=C(Cc1cccnc1Cl)N1CCc2cc(-c3ccnc(NC4CCOC4)n3)cc(F)c21 (centres unmarked) [Example P6, 2-(2-chloropyridin-3-yl)-1-(7-fluoro-5-(2-((tetrahydrofuran-3-yl)amino)pyrimidin-4-yl)indolin-1-yl)ethan-1-one]
- IC50 [1]: 10 to 100 nM

Compound: CC(CCO)Nc1nccc(-c2cc(F)c3c(c2)CCN3C(=O)Cc2cccnc2Cl)n1 (centres unmarked) [Example P7, 2-(2-chloropyridin-3-yl)-1-(7-fluoro-5-(2-((4-hydroxylbutan-2-yl)amino)pyrimidin-4-yl)indolin-1-yl)ethan-1-one]
- IC50 [1]: 10 to 100 nM

Compound: CC(CO)Nc1cc(-c2cc(F)c3c(c2)CCN3C(=O)Cc2cccnc2Cl)ccn1 (centres unmarked) [Example P8, 2-(2-chloropyridin-3-yl)-1-(7-fluoro-5-(2-((1-hydroxylprop-2-yl)amino)pyridin-4-yl)indolin-1-yl)ethan-1-one]
- IC50 [1]: 100 to 1000 nM

Compound: Cn1nccc1Nc1nccc(-c2cc(F)c3c(c2)CCN3C(=O)Cc2cccnc2Cl)n1 [Example P10, 2-(2-chloropyridin-3-yl)-1-(7-fluoro-5-(2-((1-methyl-1H-pyrazol-5-yl)amino)pyrimidin-4-yl)indolin-1-yl)ethan-1-one]
- IC50 [1]: ≤ 10 nM
- IC50 [2]: 6.1 nM

Compound: Cn1nccc1Nc1nccc(-c2cc(Cl)c3c(c2)CCN3C(=O)Cc2cccnc2Cl)n1 [Example P11, 1-(7-chloro-5-(2-((1-methyl-1H-pyrazol-5-yl)amino)pyrimidin-4-yl)indolin-1-yl)-2-(2-chloropyridin-3-yl)ethan-1-one]
- IC50 [1]: 10 to 100 nM

The remaining lines, values ahead:

- IC50 [1]: 100 to 1000 nM
Compound: O=C(Cc1cccnc1Cl)N1CCc2cc(-c3ccnc(NC4CC(O)C4)c3)cc(F)c21 (racemic) [Example P53, 2-(2-chloropyridin-3-yl)-1-(7-fluoro-5-(2-((3-hydroxylcyclobutyl)amino)pyridin-4-yl)indolin-1-yl)ethan-1-one]

- IC50 [1]: 10 to 100 nM
Compound: Cn1nccc1Nc1nccc(-c2cc(F)c3c(c2)CCN3C(=O)Cc2ccc(F)cc2F)n1 [Example P12, 2-(2,4-difluorophenyl)-1-(7-fluoro-5-(2-((1-methyl-1H-pyrazol-5-yl)amino)pyrimidin-4-yl)indolin-1-yl)ethan-1-one]

- IC50 [1]: 100 to 1000 nM
Compound: Cc1cc(-c2ccnc(Nc3ccnn3C)n2)cc2c1N(C(=O)Cc1cccnc1Cl)CC2 [Example P13, 2-(2-chloropyridin-3-yl)-1-(7-methyl-5-(2-((1-methyl-1H-pyrazol-5-yl)amino)pyrimidin-4-yl)indolin-1-yl)ethan-1-one]

- IC50 [1]: 10 to 100 nM
Compound: Cn1nccc1Nc1cc(-c2cc(Cl)c3c(c2)CCN3C(=O)Cc2cccnc2Cl)ccn1 [Example P14, 1-(7-chloro-5-(2-((1-methyl-1H-pyrazol-5-yl)amino)pyridin-4-yl)indolin-1-yl)-2-(2-chloropyridin-3-yl)ethan-1-one]

- IC50 [1]: 10 to 100 nM
Compound: Cn1nccc1Nc1nccc(-c2cc(F)c3c(c2)CCN3C(=O)Cc2ccccc2F)n1 [Example P17, 1-(7-fluoro-5-(2-((1-methyl-1H-pyrazol-5-yl)amino)pyrimidin-4-yl)indolin-1-yl)-2-(2-fluorophenyl)ethan-1-one]

- IC50 [1]: ≤ 10 nM
- IC50 [2]: 3 nM
Compound: Cn1nccc1Nc1nccc(-c2cc(F)c3c(c2)CCN3C(=O)Cc2ccccc2Cl)n1 [Example P18, 2-(2-chlorophenyl)-1-(7-fluoro-5-(2-((1-methyl-1H-pyrazol-5-yl)amino)pyrimidin-4-yl)indolin-1-yl)ethan-1-one]

- IC50 [1]: 100 to 1000 nM
Compound: Cn1nccc1Nc1nccc(-c2cc(F)c3c(c2)CCN3C(=O)Cc2ccc(Cl)cc2)n1 [Example P19, 2-(4-chlorophenyl)-1-(7-fluoro-5-(2-((1-methyl-1H-pyrazol-5-yl)amino)pyrimidin-4-yl)indolin-1-yl)ethan-1-one]

- IC50 [1]: 10 to 100 nM
Compound: Cn1nccc1Nc1cc(-c2cc(F)c3c(c2)CCN3C(=O)Cc2ncccc2Cl)ccn1 [Example P28, 2-(3-chloropyridin-2-yl)-1-(7-fluoro-5-(2-((1-methyl-1H-pyrazol-5-yl)amino)pyridin-4-yl)indolin-1-yl)ethan-1-one]

- IC50 [1]: 10 to 100 nM
Compound: Cn1nccc1Nc1cc(-c2cc(F)c3c(c2)CCN3C(=O)Cc2cccc(Cl)n2)ccn1 [Example P29, 2-(6-chloropyridin-2-yl)-1-(7-fluoro-5-(2-((1-methyl-1H-pyrazol-5-yl)amino)pyridin-4-yl)indolin-1-yl)ethan-1-one]

- IC50 [1]: 10 to 100 nM
Compound: Cn1nccc1Nc1nccc(-c2cc(F)c3c(c2)CCN3C(=O)Cc2ccccc2C#N)n1 [Example P30, 2-(2-(7-fluoro-5-(2-((1-methyl-1H-pyrazol-5-yl)amino)pyrimidin-4-yl)indolin-1-yl)-2-oxoethyl)benzonitrile]

- IC50 [1]: ≤ 10 nM
Compound: Cn1nccc1Nc1cc(-c2cc(F)c3c(c2)CCN3C(=O)Cc2ccccc2Cl)ccn1 [Example P31, 2-(2-chlorophenyl)-1-(7-fluoro-5-(2-((1-methyl-1H-pyrazol-5-yl)amino)pyridin-4-yl)indolin-1-yl)ethan-1-one]

- IC50 [1]: ≤ 10 nM
Compound: CC1Cc2cc(-c3ccnc(Nc4ccnn4C)n3)cc(F)c2N1C(=O)Cc1cccnc1Cl (centres unmarked) [Example P32, 2-(2-chloropyridin-3-yl)-1-(7-fluoro-2-methyl-5-(2-((1-methyl-1H-pyrazol-5-yl)amino)pyrimidin-4-yl)indolin-1-yl)ethan-1-one]

- IC50 [1]: 10 to 100 nM
Compound: Cn1nccc1Nc1nccc(-c2cc(F)c3c(c2)CCN3C(=O)Cc2c(F)ccnc2Cl)n1 [Example P33, 2-(2-chloro-4-fluoropyridin-3-yl)-1-(7-fluoro-5-(2-((1-methyl-1H-pyrazol-5-yl)amino)pyrimidin-4-yl)indolin-1-yl)ethan-1-one]

- IC50 [1]: 10 to 100 nM
Compound: Cn1nccc1Nc1nccc(-c2cc(F)c3c(c2)CCN3C(=O)Cc2cc(Cl)ccc2F)n1 [Example P34, 2-(5-chloro-2-fluorophenyl)-1-(7-fluoro-5-(2-((1-methyl-1H-pyrazol-5-yl)amino)pyrimidin-4-yl)indolin-1-yl)ethan-1-one]
